Laboratory results from patent US8344010B2, “Fused imidazole derivatives as TRPV3 antagonist” (Glenmark Pharmaceuticals S.A., priority 2008, dated 2013).

Target: T1, Human TRPV3 (Homo sapiens, UniProt Q8NET8)
T1 construct: expressed in transfected cells; host or cells: CHO cells (selected with G-418)
T1 sequence (Q8NET8 1-790): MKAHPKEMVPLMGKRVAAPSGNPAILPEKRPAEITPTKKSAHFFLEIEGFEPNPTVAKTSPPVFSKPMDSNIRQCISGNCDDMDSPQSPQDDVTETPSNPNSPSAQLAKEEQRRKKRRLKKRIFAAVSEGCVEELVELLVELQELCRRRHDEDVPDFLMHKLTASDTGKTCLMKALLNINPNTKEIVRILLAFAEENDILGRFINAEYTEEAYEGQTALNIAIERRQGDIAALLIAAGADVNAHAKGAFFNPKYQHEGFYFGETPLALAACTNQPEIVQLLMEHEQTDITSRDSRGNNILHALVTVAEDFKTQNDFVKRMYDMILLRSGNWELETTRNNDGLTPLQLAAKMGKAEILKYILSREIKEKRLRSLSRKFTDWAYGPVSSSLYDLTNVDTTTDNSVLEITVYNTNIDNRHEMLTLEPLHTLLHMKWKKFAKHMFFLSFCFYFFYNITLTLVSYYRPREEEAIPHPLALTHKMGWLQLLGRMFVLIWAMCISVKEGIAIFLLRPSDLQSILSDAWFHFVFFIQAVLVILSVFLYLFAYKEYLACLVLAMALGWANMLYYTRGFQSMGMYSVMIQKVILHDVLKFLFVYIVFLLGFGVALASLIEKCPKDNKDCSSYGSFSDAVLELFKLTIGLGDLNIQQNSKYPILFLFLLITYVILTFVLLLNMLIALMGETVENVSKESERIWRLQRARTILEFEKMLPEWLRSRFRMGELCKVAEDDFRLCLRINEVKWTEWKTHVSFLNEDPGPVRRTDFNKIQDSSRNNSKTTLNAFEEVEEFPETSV
Assay: 45Calcium uptake assay: inhibition of 2-APB induced cellular uptake of radioactive calcium
Type: cell-based
Conditions: human TRPV3 expressing CHO cells, 2-APB 500 μM; for inhibition at 1 µM: 1 μM test compound, read-out: Percentage Inhibition (1 μM); for inhibition at 10 µM: 10 μM test compound, read-out: Percentage Inhibition (10 μM); for IC50: class symbol
Description: The illustrative examples of the present invention are screened for TRPV3 activity according to a modified procedure described in Tóth, A., Kedei, N., Wang, Y. and Blumberg, P. M. Life Sciences (2003), 73, 487-498. The screening of the compounds can be carried out by other methods and procedures known to a person skilled in the art. Such screening methods may be found in (a) Hu, H.-Z. et al. J. Biol. Chem. (2004), 279, 35741-35747; (b) Smith, G. D. et al. Nature (2002), 418, 186-190; (c) Peier, A. M. et al. Science (2002), 296, 2046-2049.
Screening for TRPV3 antagonist using the ^45Calcium uptake assay The inhibition of TRPV3 receptor activation was followed as inhibition of 2-aminoethoxydiphenylborate (2-APB) induced cellular uptake of radioactive calcium. Test compounds were dissolved in dimethyl sulfoxide (DMSO) to prepare 20 mM stock solution and then diluted using plain medium with DMEM/F-12 containing 1.8 mM CaCl2 to get desired concentration. Final concentration of DMSO in the reaction was 0.5% (v/v). Human TRPV3 expressing CHO cells were grown in DMEM/F-12 medium with 10% FBS, 1% penicillin-streptomycin solution, 400 μg/ml of G-418. Cells were seeded 24 h prior to the assay in 96 well plates so as to get ˜50,000 cells per well on the day of experiment. Cells were treated with test compounds for 10 minutes followed by addition of 2-APB at a final concentration of 500 μM and 5 μCi/ml^45Ca^+2 for 4 minutes. Cells were washed and lysed using buffer containing 1% Triton X-100, 0.1% deoxycholate and 0.1% SDS. Radioactivity in the lysate was measured in Packardt Top count after addition of liquid scintillant. Concentration response curves were plotted as a % of maximal response obtained in the absence of test antagonist. IC50 value was calculated from concentration response curve by nonlinear regression analysis using GraphPad PRISM software.
Percentage inhibition at concentrations of 1.0 μM and 10.0 μM are given in the table along with IC50 details for selected examples.

Row | Compound | inhibition at 1 µM [%] | inhibition at 10 µM [%] | IC50 [nM]
1 | COc1cccc(/C=C/c2nc3ccccc3n2-c2ccccn2)c1OCC1CC1 [Example 1, 2-{(E)-2-[2-(Cyclopropylmethoxy)-3-methoxyphenyl]vinyl}-1-pyridin-2-yl-1H-benzimidazole] | 12.8 | 78.5 | –
2 | COc1cccc(/C=C/c2nc3ccccc3n2-c2ncc(Cl)cc2Cl)c1OCc1ccccc1 [Example 5, 2-[(E)-2-(2-Benzyloxy-3-methoxyphenyl)vinyl]-1-(3,5-dichloropyridin-2-yl)-1H-benzimidazole] | 38.8 | 69.3 | –
3 | COc1cccc(/C=C/c2nc3ccccc3n2-c2ncc(Cl)cc2Cl)c1OCc1ccccc1F [Example 6, 1-(3,5-Dichloropyridin-2-yl)-2-{(E)-2-[2-(2-fluorobenzyloxy)-3-methoxyphenyl]vinyl}-1H-benzimidazole] | 66.8 | 89 | > 500
4 | CCCCOc1c(/C=C/c2nc3ccccc3n2-c2ccc(C#N)cn2)cccc1OC [Example 8, 6-{2-[(E)-2-(2-Butoxy-3-methoxyphenyl)vinyl]-1H-benzimidazol-1-yl}nicotinonitrile] | 91.6 | 97 | 100 to 500
5 | COc1cccc(/C=C/c2nc3ccccc3n2-c2ccc(C#N)cn2)c1OC(C)C [Example 9, 6-{2-[(E)-2-(2-Isopropoxy-3-methoxyphenyl)vinyl]-1H-benzimidazol-1-yl}nicotinonitrile] | 79.7 | 97.9 | > 500
6 | CCC(CC)Oc1c(/C=C/c2nc3ccccc3n2-c2ccc(C#N)cn2)cccc1OC [Example 10, 6-{2-[(E)-2-(2-(1-Ethylpropoxy)-3-methoxyphenyl)vinyl]-1H-benzimidazol-1-yl}nicotinonitrile] | 96.6 | 99.1 | 100 to 500
7 | COc1cccc(/C=C/c2nc3ccccc3n2-c2ccc(C#N)cn2)c1OCC(C)C [Example 11, 6-(2-{(E)-2-[3-methoxy-2-(2-methylpropoxy)phenyl]ethenyl}-1H-benzimidazol-1-yl)pyridine-3-carbonitrile] | 94.8 | 97.4 | 100 to 500

Next, values leading:

Row | inhibition at 1 µM [%] | inhibition at 10 µM [%] | IC50 [nM] | Compound
8 | 3.64 | 85 | – | COc1cccc(/C=C/c2nc3ccccc3n2-c2ccccn2)c1OC1CCCC1 [Example 2, 2-[(E)-2-(2-Cyclopentyloxy-3-methoxyphenyl)vinyl]-1-pyridin-2-yl-1H-benzimidazole]
9 | 62.1 | 86.6 | > 500 | COc1cccc(/C=C/c2nc3ccccc3n2-c2ccc(Cl)cn2)c1OC1CCCC1 [Example 3, 1-(5-Chloropyridin-2-yl)-2-{(E)-2-[2-(cyclopentyloxy)-3-methoxyphenyl]vinyl}-1H-benzimidazole]
10 | 50.9 | 81.7 | – | COc1cccc(/C=C/c2nc3ccccc3n2-c2ccc([N+](=O)[O-])cn2)c1OC1CCCC1 [Example 4, 2-[(E)-2-(2-[Cyclopentyloxy]-3-methoxyphenyl)vinyl]-1-(5-nitropyridin-2-yl)-1H-benzimidazole]
11 | 6.4 | 92.8 | – | COc1cccc(/C=C/c2nc3ccccc3n2-c2ncccc2C#N)c1OC1CCCC1 [Example 7, 2-{2-[(E)-2-(2-Cyclopentyloxy-3-methoxyphenyl)vinyl]-1H-benzimidazol-1-yl}nicotinonitrile]
12 | 81.4 | 97.7 | 100 to 500 | COc1cccc(/C=C/c2nc3ccccc3n2-c2ccc(C#N)cn2)c1OCC1CC1 [Example 12, 6-{2-[(E)-2-(2-[Cyclopropylmethoxy]-3-methoxyphenyl)vinyl]-1H-benzimidazol-1-yl}nicotinonitrile]
13 | 89.1 | 95.8 | 100 to 500 | COc1cccc(/C=C/c2nc3ccccc3n2-c2ccc(C#N)cn2)c1OC1CCCC1 [Example 13, 6-{2-[(E)-2-(2-Cyclopentyloxy-3-methoxyphenyl)vinyl]-1H-benzimidazol-1-yl}nicotinonitrile]
